# Measured values published in patent EP4599829A1, “USE OF IMIDAZOLIDINYL VANILLIC ACID ETHER DERIVATIVE IN TREATMENT OF DISEASE ACCOMPANIED BY FIBROSIS” (Hefei Institute of Pharmaceutical Industry Co., Ltd., priority 2022, dated 2024).
# Marks after values point to notes of the source that are not given here.
# What was measured:
# Assay type in all cases: in vivo, Female BALB/c mice
# [1] = test system: transforming growth factor β1 (TGF-β1); assay: Serum TGF-β1 level (ELISA) in BLM-induced systemic sclerosis mouse model; settings: 0.10 mmol/kg once a day for 28 days; for TGF-β1: serum, oral (gavage) (Sodium Ozagrel: intravenous injection), mean ± SE, n = 8, blank 379.76±120.63, model 913.10±64.73
# Excerpt: (§1) Female BALB/c mice, weighing 18-22 g, were purchased from Beijing Weitonglihua Experimental Animal Technology Co., Ltd. and housed in an SPF environment for 1 week (with free access to drinking water during the feeding period). They were then randomly divided into 9 groups, with 10 mice in each group, namely, blank group, model group, sodium ozagrel group, dipyridamole group, clopidogrel group, cilostazol group, ticagrelor group, aspirin group, and HY-2 group. The back of mice of each group was shaved in an area of 1 cm*1 cm. Except for the blank group which was subcutaneously injected with normal saline, all other groups were subcutaneously injected with BLM 100 µL (0.5 mg/mL) for 28 consecutive days (the injection area was injected at the four corners of the shaved area for the first 4 times, and the center of the shaved area for the 5th time, and this cycle was repeated. The skin changes at the subcutaneous injection site and the weight changes of the mice were observed every week). Each treatment group was respectively given sodium ozagrel, dipyridamole, clopidogrel, cilostazol, ticagrelor, aspirin, and HY-2 30 minutes after the injection of BLM, once a day for 28 consecutive days (the dosage and administration method are shown in Table 1). Table 1 Dosage and administration method
# (§2) Mouse TXB2 ELISA kit was purchased from Shanghai Jianglai Biological, batch number: 20220715, antibody types: purified mouse TXB2 capture antibody and horseradish peroxidase (HRP)-labeled detection antibody; mouse TGF-β1 ELISA kit was purchased from Shanghai Jianglai Biological, batch number: 20220806, antibody types: purified mouse TGF-β1 capture antibody and horseradish peroxidase (HRP)-labeled detection antibody.
# (§3) The kit uses a double-antibody one-step sandwich enzyme-linked immunosorbent assay (ELISA). Serum specimens, standards, and horseradish peroxidase (HRP)-labeled detection antibodies are added sequentially to the coated microwells pre-coated with mouse analyte capture antibodies, followed by incubation and thorough washing. The substrate TMB (3,3',5,5'-tetramethylbenzidine) is used for color development. TMB is converted to be blue under the catalysis of peroxidase (HRP) and then converted to be finally yellow under the action of acid. The depth of color is positively correlated with the content of the analyte in the serum sample. The absorbance (OD value) was measured at a wavelength of 450 nm using a microplate reader to calculate the sample concentration.
# (§4) After the last administration, the animals were sacrificed and serum samples were collected. Standard wells were set on the enzyme-labeled coated plate, standard solutions of different concentrations were prepared according to the instructions, and 50uL of standard solutions of different concentrations were added to each standard well. Blank wells and test sample wells were set on the enzyme-labeled coated plate, 40uL of sample diluent was first added to the test sample well, and 20uL of test serum sample was then added. 100uL of enzyme-labeled reagent was added to each well, except the blank well. The plate was sealed with a sealing film and incubated at 37°C for 60 minutes. The sealing film was removed, and after discarding the liquid and spinning dry, each well was filled with washing solution, and stood for 30 seconds, then discarding the washing solution, repeating 5 times and spinning dry. 50uL of color developer A (containing H2O2) was first added into each well, and then 50uL of color developer B (containing substrate TMB) was added, gently shaking to mix, and color developing at 37°C in the dark for 15 minutes. 50uL of stop solution was added to each well to stop the reaction (the blue color immediately turns to yellow). The microplate reader was adjusted to zero with the blank well, and the absorbance OD value of each well was measured in sequence at a wavelength of 450nm. The measurement should be carried out within 15 minutes after adding the stop solution.
# [2] = test system: BLM-Induced Systemic Sclerosis Mouse Model; assay: Comparison with other antiplatelet drugs: skin thickening in BLM-induced systemic sclerosis mouse model; settings: 0.10 mmol/kg once a day for 28 days; for Skin thickness: oral (gavage) (Sodium Ozagrel: intravenous injection), mean ± SE, n = 8, blank 0.22±0.05, model 0.87±0.15
# Excerpt: as §1
# After the last administration, the animals were sacrificed, and the back skin tissue was taken, fixed with 4% paraformaldehyde, dehydrated, paraffin-embedded and sliced. The tissue sections were stained with HE, and the pathological morphological changes of the skin tissue were examined with a microscope and the skin thickening was measured.
# The experimental data were processed using GraphPad Prism 7, and the experimental groups were compared using the student t test.
# thromboxane B2 (TXB2) = assay: Serum TXB2 level (ELISA) in BLM-induced systemic sclerosis mouse model; settings: 0.10 mmol/kg once a day for 28 days; for TXB2: serum, oral (gavage) (Sodium Ozagrel: intravenous injection), mean ± SE, n = 8, blank 74.19±14.76, model 261.91±10.96
# Excerpt: as §1, §2, §3, §4
# [3] = test system: BLM-Induced Systemic Sclerosis Mouse Model; assay: Lung histopathology (HE staining) in BLM-induced systemic sclerosis mouse model; settings: each dose group (15, 30, 60 mg/kg) oral (gavage) once a day for 28 days, compared with the model group
# Description: (§5) Female BALB/c mice, weighing 18-22 g, were purchased from Beijing Weitonglihua Experimental Animal Technology Co., Ltd. and housed in an SPF environment for 1 week (with free access to water during the feeding period). They were then randomly divided into 5 groups, with 8 mice in each group, namely, blank group, model group, HY-2 15 mg/kg, 30 mg/kg, and 60 mg/kg dose groups. The back of each group of mice was shaved in an area of 1 cm*1 cm. Except for the blank group which was subcutaneously injected with normal saline, all other groups were injected with BLM 100 µL (0.5 mg/mL) for 28 consecutive days (the injection area was the four corners of the shaved area for the first 4 injections, and the center of the shaved area for the 5th injection, and this cycle was repeated. The skin changes at the subcutaneous injection site and the weight changes of the mice were observed every week). After the injection of BLM, each dose treatment group was orally (gavage) given the corresponding dose of HY-2 once a day for 28 consecutive days.
# After the last administration, the animals were sacrificed, and appropriate lung tissues were taken for HE staining and slide preparation to examine the lung tissue structure and inflammatory cell infiltration.
# [4] = test system: BLM-Induced Systemic Sclerosis Mouse Model; assay: Skin thickening (HE staining) in BLM-induced systemic sclerosis mouse model, dose groups; settings: compared with the model group
# Description: Female BALB/c mice, weighing 18-22 g, were purchased from Beijing Weitong Lihua Experimental Animal Technology Co., Ltd. and housed in an SPF environment for 1 week (with free access to drinking water during the feeding period). They were then randomly divided into 5 groups, 8 mice in each group, namely, blank group, model group, 15 mg/kg, 30 mg/kg, and 60 mg/kg dosage groups of sodium 4-(2-(1H-imidazol-1-yl)ethoxy)-3-methoxybenzoate (HY-2). The back of each group of mice was shaved in an area of 1 cm*1 cm. Except for the blank group which was subcutaneously injected with normal saline, all other groups were injected with BLM 100 µL (0.5 mg/mL) for 28 consecutive days (the injection area was the four corners of the shaved area for the first 4 injections, and the center of the shaved area for the 5th injection, and this cycle was repeated. The skin changes at the subcutaneous injection site and the weight changes of the mice were observed every week). After the injection of BLM, the treatment group was orally (gavaged) given the corresponding dose of sodium 4-(2-(1H-imidazole-1-yl)ethoxy)-3-methoxybenzoate, once a day, for 28 consecutive days.
# After the last administration, the animals were sacrificed, and appropriate skin tissues were taken for HE staining and measurement of skin thickening.
# [5] = test system: BLM-Induced Systemic Sclerosis Mouse Model; assay: Collagen deposition (Masson staining) in skin and lung tissues of BLM-induced systemic sclerosis mouse model; settings: each dose group (15, 30, 60 mg/kg) oral (gavage) once a day for 28 days, compared with the model group, P<0.01
# Description: as §5, with “administered” for “given”
# After the last administration, the animals were sacrificed, and appropriate skin and lung tissues were taken for Masson staining and slide preparation to examine the collagen deposition in the skin and lung tissues. The percentage of collagen deposition was quantified using Image-Pro® Plus software.
Structure (SMILES),TGF-β1 [1],Skin thickness [2],TXB2 (thromboxane B2 (TXB2)),effect on TGF-β1 in serum (in words) ([1]; vs model group),lung tissue structure and inflammatory cell infiltration [3],skin thickness compared with the model group (in words) ([2]; P<0.01),"skin thickening ([4]; 30 mg/kg oral (gavage) once a day for 28 days, P<0.05)","skin thickening ([4]; 60 mg/kg oral (gavage) once a day for 28 days, P<0.01)",effect on TXB2 in serum (in words) (thromboxane B2 (TXB2); vs model group),collagen deposition in the lung tissue [5],collagen deposition in the skin [5]
"O=C(O)/C=C/c1ccc(Cn2ccnc2)cc1 [Sodium Ozagrel, sodium ozagrel]",884.74±33.45^aa pg/mL,0.82±0.16^aa mm,196.54 ± 45.30 pg/mL,,,,,,,,
"CCCSc1nc(N[C@@H]2C[C@H]2c2ccc(F)c(F)c2)c2nnn([C@@H]3C[C@H](OCCO)[C@@H](O)[C@H]3O)c2n1 [Ticagrelor, ticagrelor]",847.62±43.73^a pg/mL,0.74±0.07^aa mm,197.76 ± 42.08 pg/mL,,,,,,,,
"O=C1CCc2cc(OCCCCc3nnnn3C3CCCCC3)ccc2N1 [Cilostazol, cilostazol]",838.27 ± 65.93 pg/mL,0.74±0.11^a mm,259.32±7.13^a pg/mL,,,,,,,,
"CC(=O)Oc1ccccc1C(=O)O [Aspirin, aspirin]",827.68 ± 77.88 pg/mL,0.80±0.09^aa mm,239.57 ± 13.60 pg/mL,,,,,,,,
"OCCN(CCO)c1nc(N2CCCCC2)c2nc(N(CCO)CCO)nc(N3CCCCC3)c2n1 [Dipyridamole, dipyridamole]",867.56 ± 113.73 pg/mL,0.74 ± 0.12^a mm,248.84 ± 38.88 pg/mL,,,,,,,,
"COC(=O)[C@H](c1ccccc1Cl)N1CCc2sccc2C1 [Clopidogrel, clopidogrel]",822.62 ± 76.60 pg/mL,0.81±0.10^aa mm,208.46 ± 42.87 pg/mL,,,,,,,,
"COc1cc(C(=O)[O-])ccc1OCCn1ccnc1.[Na+] [HY-2, sodium 4-(2-(1H-imidazol-1-yl)ethoxy)-3-methoxybenzoate]",783.04 ± 53.77 pg/mL,0.59±0.06 mm,215.00 ± 38.92 pg/mL,significantly reduce,regular and infiltrated by less inflammatory cells,significantly decreased,significantly inhibited,significantly inhibited,significantly reduce,significantly reduced,significantly reduced
